Data taken from PubChem BioAssay AID1963867 (Molecular Pharmacology Branch, DTP, NCI, 2024).

System: KRAS-mutant PDC tumor spheroid with HUVEC/MSC, viability
Assay: Anticancer human tumor 327498-153-R-J2-PDC patient-derived uterine carcinosarcoma cell line growth inhibition [KRAS2]
Settings: for IC50: curve of first compound; for viability, T/C: stronger effect = lower value
How it was run: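 KRAS-mutant tumor cells were grown as spheroids with HUVEC endothelial cells and human MSCs as stroma. Targeted agents were tested alone and with KRAS pathway inhibitors. Doses started at or near clinical Cmax, or 10 microM, descending half-log.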

[1] = second compound 0.1 µM, first compound 0.0316 µM
[2] = second compound 0.1 µM, first compound 0.1 µM
[3] = second compound 0.316 µM, first compound 0.0316 µM
[4] = second compound 0.316 µM, first compound 0.1 µM
[5] = second compound 1 µM, first compound 0.0316 µM
[6] = second compound 1 µM, first compound 0.1 µM
[7] = second compound 3.16 µM, first compound 0.0316 µM
[8] = second compound 3.16 µM, first compound 0.1 µM
[9] = second compound 10 µM, first compound 0.0316 µM
[10] = second compound 10 µM, first compound 0.1 µM
[11] = second compound 0.1 µM, first compound 0.316 µM
[12] = second compound 0.1 µM, first compound 1 µM
[13] = second compound 0.1 µM, first compound 3.16 µM
[14] = second compound 0.1 µM, first compound 10 µM
[15] = second compound 0.316 µM, first compound 0.316 µM
[16] = second compound 0.316 µM, first compound 1 µM
[17] = second compound 0.316 µM, first compound 3.16 µM
[18] = second compound 0.316 µM, first compound 10 µM
[19] = second compound 1 µM, first compound 0.316 µM
[20] = second compound 1 µM, first compound 1 µM
[21] = second compound 1 µM, first compound 3.16 µM
[22] = second compound 1 µM, first compound 10 µM
[23] = second compound 3.16 µM, first compound 0.316 µM
[24] = second compound 3.16 µM, first compound 1 µM
[25] = second compound 3.16 µM, first compound 3.16 µM
[26] = second compound 3.16 µM, first compound 10 µM
[27] = second compound 10 µM, first compound 0.316 µM
[28] = second compound 10 µM, first compound 1 µM
[29] = second compound 10 µM, first compound 3.16 µM
[30] = second compound 10 µM, first compound 10 µM
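Also: spheroids exposed to agents for seven days before reading.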
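For viability, T/C in this document: 100% = DMSO vehicle wells so lower means fewer viable cells.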

SMILES	IC50 (second compound 0.1 µM) [nM]	IC50 (second compound 0.316 µM) [nM]	IC50 (second compound 1 µM) [nM]	IC50 (second compound 3.16 µM) [nM]	IC50 (second compound 10 µM) [nM]	viability, T/C [1] [%]	viability, T/C [2] [%]	viability, T/C [3] [%]	viability, T/C [4] [%]	viability, T/C [5] [%]	viability, T/C [6] [%]	viability, T/C [7] [%]	viability, T/C [8] [%]	viability, T/C [9] [%]	viability, T/C [10] [%]	viability, T/C [11] [%]	viability, T/C [12] [%]	viability, T/C [13] [%]	viability, T/C [14] [%]	viability, T/C [15] [%]	other results
CC(C)n1nc(-c2ccc3oc(N)nc3c2)c2c(N)ncnc21 + CC1OCC2(CCN(c3cnc(Sc4ccnc(N)c4Cl)c(N)n3)CC2)C1N	2.17	0.756	< 0.316	< 0.316	< 0.316	8.54	5.56	6.36	4.27	6.01	3.72	4.67	3.18	4.21	3.29						viability, T/C (second compound 0.1 µM, first compound 0.000316 µM): 70.3%; viability, T/C (second compound 0.1 µM, first compound 0.001 µM): 72.7%; viability, T/C (second compound 0.1 µM, first compound 0.00316 µM): 38.3%; viability, T/C (second compound 0.1 µM, first compound 0.01 µM): 18.5%; viability, T/C (second compound 0.316 µM, first compound 0.000316 µM): 61.8%; viability, T/C (second compound 0.316 µM, first compound 0.001 µM): 46%; viability, T/C (second compound 0.316 µM, first compound 0.00316 µM): 28.2%; viability, T/C (second compound 0.316 µM, first compound 0.01 µM): 14.3%; viability, T/C (second compound 1 µM, first compound 0.000316 µM): 41.2%; viability, T/C (second compound 1 µM, first compound 0.001 µM): 32.8%; viability, T/C (second compound 1 µM, first compound 0.00316 µM): 20%; viability, T/C (second compound 1 µM, first compound 0.01 µM): 10.4%; viability, T/C (second compound 3.16 µM, first compound 0.000316 µM): 31.4%; viability, T/C (second compound 3.16 µM, first compound 0.001 µM): 22.6%; viability, T/C (second compound 3.16 µM, first compound 0.00316 µM): 13.8%; viability, T/C (second compound 3.16 µM, first compound 0.01 µM): 8.15%; viability, T/C (second compound 10 µM, first compound 0.000316 µM): 22.9%; viability, T/C (second compound 10 µM, first compound 0.001 µM): 19.6%; viability, T/C (second compound 10 µM, first compound 0.00316 µM): 11.7%; viability, T/C (second compound 10 µM, first compound 0.01 µM): 7.42%
CC1(C)CCC(CN2CCN(c3ccc(C(=O)NS(=O)(=O)c4ccc(NCC5CCOCC5)c([N+](=O)[O-])c4)c(Oc4cnc5[nH]ccc5c4)c3)CC2)=C(c2ccc(Cl)cc2)C1 + CC1OCC2(CCN(c3cnc(Sc4ccnc(N)c4Cl)c(N)n3)CC2)C1N	1920	1120	< 31.6	< 31.6	< 31.6	64.6	67.3	53.7	48.5	42	42.7	32.6	33.3	23.6	28.6	73.2	66	37.6	3.49	51.1	viability, T/C [16]: 56.4%; viability, T/C [17]: 28.6%; viability, T/C [18]: 1.66%; viability, T/C [19]: 42%; viability, T/C [20]: 41%; viability, T/C [21]: 25%; viability, T/C [22]: 0.76%; viability, T/C [23]: 30.8%; viability, T/C [24]: 25.9%; viability, T/C [25]: 15.6%; viability, T/C [26]: 0.57%; viability, T/C [27]: 23.7%; viability, T/C [28]: 25%; viability, T/C [29]: 15.4%; viability, T/C [30]: 0.27%
COc1cc(Nc2ncc3c(n2)-c2ccc(Cl)cc2C(c2c(F)cccc2OC)=NC3)ccc1C(=O)O + CC1OCC2(CCN(c3cnc(Sc4ccnc(N)c4Cl)c(N)n3)CC2)C1N	< 31.6	< 31.6	< 31.6	< 31.6	< 31.6	14.7	11.3	11.9	8.86	9.52	8.62	7.99	6.54	7.28	6.61	9.61	8.46	10.4	10.4	8.33	viability, T/C [16]: 8.66%; viability, T/C [17]: 9.93%; viability, T/C [18]: 9.67%; viability, T/C [19]: 7.21%; viability, T/C [20]: 7.15%; viability, T/C [21]: 8.7%; viability, T/C [22]: 7.62%; viability, T/C [23]: 6%; viability, T/C [24]: 5.95%; viability, T/C [25]: 6.67%; viability, T/C [26]: 5.35%; viability, T/C [27]: 6.26%; viability, T/C [28]: 6.94%; viability, T/C [29]: 6.28%; viability, T/C [30]: 5.22%
COc1cc2nccc(Oc3ccc(NC(=O)C4(C(=O)Nc5ccc(F)cc5)CC4)cc3)c2cc1OC + CC1OCC2(CCN(c3cnc(Sc4ccnc(N)c4Cl)c(N)n3)CC2)C1N	1310	659	< 31.6	< 31.6	< 31.6	70.9	76.3	53.3	53.5	38.5	35.9	29.9	31.5	24.6	21.9	61.8	60.5	21.6	2.02	46.9	viability, T/C [16]: 49.5%; viability, T/C [17]: 20.5%; viability, T/C [18]: 1.95%; viability, T/C [19]: 32.2%; viability, T/C [20]: 31.9%; viability, T/C [21]: 10.8%; viability, T/C [22]: 1.02%; viability, T/C [23]: 23.1%; viability, T/C [24]: 21.3%; viability, T/C [25]: 14.4%; viability, T/C [26]: 0.53%; viability, T/C [27]: 23.6%; viability, T/C [28]: 22.1%; viability, T/C [29]: 9.8%; viability, T/C [30]: 0.48%
